# Measured values as given in patent EP4417607A1, “HETEROCYCLIC COMPOUND AS SOS1 INHIBITOR AND USES THEREOF” (Nanjing Zaiming Pharmaceutical Co., Ltd., priority 2021, dated 2023).
# Assays:
# [1] = Caco-2 membrane permeability and transport; type: in vitro ADME; settings: human, pH 7.4; for Papp A→B at 2 h, 10 µM: Caco-2, apical to basal; for Papp B→A at 2 h, 10 µM: Caco-2, basal to apical
# Protocol: The membrane permeability and transport properties of the compound of the present disclosure were determined using the following method. • I. Experimental materials and instruments • 1. Caco-2 cells (ATCC) • 2. HEPES (Solarbio 804D049), penicillin/streptomycin (Solarbio 20200109), Trypsin/EDTA (Solarbio), and PBS (Solarbio 20200620) • 3. Fetal Bovine Serum (FBS) (Sigma WXBD0055V), lucifer yellow (Sigma MKCJ3738), and NaHCO3 (Sigma SLBZ4647) • 4. Hank's balanced salt solution (Gibco 2085528), non-essential amino acid (NEAA) (Gibco 2211548), and Trypsin/EDTA (Gibco 2120732) • 5. High glucose DMEM (Corning 20319014) • 6. HTS Transwell-96 Well Permeable (Corning, 3391) • 7. Resistance detector (Millipore, Millicell® ERS-2) • 8. Cellometer® Vision (Nexcelom Bioscience) • 9. Infinite 200 PRO microplate reader (Tecan, Infinite M200PRO) • 10. Positive control compound metoprolol (Sinopharm 100084-201403), erythromycin (MCE 84550), and cimetidine (Sinopharm 100158-201406) • 11. ABI QTrap 5500 liquid chromatography-mass spectrometry system • II. Procedures • 1. Caco-2 cell culture • 1) Preparation of transport buffer (HBSS containing 25 mM HEPES, pH 7.4): 5.958 g HEPES and 0.35 g NaHCOs were accurately weighed and dissolved in 900 mL pure water. 100 mL of 10× HBSS was then added and stirred well. The pH was adjusted to 7.4, and the mixture was filtered. • 2) Preparation of Caco-2 cell culture medium: FBS, penicillin, streptomycin, kanamycin, and NEAA were added to a high glucose DMEM (containing L-glutamine) culture medium to prepare a cell culture medium containing 10% FBS, 0.1 mg/mL streptomycin, 100 units penicillin, 0.6 µg/mL kanamycin, and 1× NEAA. • 3) Cells were cultured with a T-75 flask at 37 °C with 5% CO2 in an incubator. The culture medium was discarded when cell density reached 80-90%. The cells were rinsed with 5 mL PBS. 1.5 mL Trypsin/EDTA was added. The mixture was incubated at 37 °C for 5-10 min in an incubator until the cells shed like quicksand. Finally the Trypsin/EDTA was neutralized with a FBS-containing culture medium. • 4) The cell suspension was centrifuged at 120 × g for 10 min, and the supernatant was discarded. • 5) The cells were resuspended in a cell culture medium. The cell suspension was adjusted to a density of 6.86 × 10^5 cells/mL. • 2. Caco-2 cell inoculation • 1) 50 µL of culture medium was added to the Transwell chamber per well. 25 mL of culture medium was added to the lower chamber, and the chamber was preheated at 37 °C for 1 h with 5% CO2 in an incubator. • 2) 50 µL of the cell suspension was added to the preheated Transwell chamber per well at a final density of 2.4 × 10^5 cells/cm^2 • 3) The cells were cultured for 14-18 days. The culture medium was replaced every other day, and the culture medium was replaced within 48 h after the initial inoculation. The culture medium had to be replaced the day before the experiment. • 3. Evaluation of integrity of monolayer cell membrane • 1) The cells fused and differentiated after 14 days of culture and were ready for a transport experiment. • 2) The resistance of the monolayer membrane was measured using a resistance detector. […] Transport experiment • 1) A 10 mM stock solution of the compound of the present disclosure or the positive control compound was diluted with DMSO to give a 2 mM stock solution. The 2 mM stock solution was then diluted with the transport buffer to give a 10 µM working solution of the compound of the present disclosure or the positive control compound. • 2) The Caco-2 cell plate was taken out from the incubator, washed twice with the pre-heated transport buffer, and incubated at 37 °C in an incubator for 30 min. • 3) To determine the transport rate of the compound from the apical end to the basal end (A → B), 108 µL of the working solution of the compound was added to the Transwell chamber (apical end), while 8 µL of the sample was immediately taken from the apical end to 72 µL of the transport buffer. […]
# [2] = system: H358-SOS2 KO cells; test: H358-SOS2 KO cell proliferation inhibition (CellTiter-Glo, 3D methylcellulose); type: cell-based; settings: 192 h, 8 days, CTG
# Protocol: The effect of the compounds of the present invention on the proliferation of H358 cells with knockout of SOS2 (H358-SOS2 KO, Kyinno Biotechnology Co., Ltd.) was assessed by CellTiter-Glo luminescent cell viability assay kit method. The H358-SOS2 KO cell strain was cultured in complete medium at 37 °C with 5% CO2. A sterilized 1% methylcellulose 3D medium was prepared in advance. Cells in the logarithmic growth phase were harvested and counted using a […]. The cell viability was determined by the trypan blue exclusion method, and the cell viability was kept 90% or more. The cell concentration was adjusted. The cells were uniformly mixed and left to stand. After no visible gas exists in the cell suspension, 180 µL of the cell suspension was added into a 96-well plate at 180 µL/well, and the total number of cells was 2000. The cells in the 96-well plate were incubated at 37 °C with 5% CO2. A diluted test compound was added to each well using a multi-channel pipette. […] The cell plate was placed at room temperature for 20 min to stabilize the luminescence signal. The luminescence value was read, and the data were collected. The data were analyzed using the GraphPad Prism 7.0 software. Dose-response curves were fit to the data using nonlinear S-curve regression, and the IC50 value was calculated from the curves.
SMILES,"efflux ratio at 2 h, 10 µM ([1]; Caco-2, Papp (B-A)/Papp (A-B))","Papp A→B at 2 h, 10 µM [1] [×10⁻⁶ cm/s]","Papp B→A at 2 h, 10 µM [1] [×10⁻⁶ cm/s]","efflux ratio ([1]; Caco-2, Papp (B-A)/Papp (A-B))",IC50 [2] [nM]
"Cc1nc(N[C@H](C)c2cccc(C(F)F)c2F)c2cn(C3(CF)CC3)c(=O)c(N3CCOC[C@@H]3C)c2n1 [Example 40, 4-(((R)-1-(3-(difluoromethyl)-2-fluorophenyl)ethyl)amino)-6-(1-(fluoromethyl)cyclopropyl)-2-methyl-8-((S)-3-methylmorpholine)pyrido[4,3-d]pyrimidine-7(6H)-one]",13.1,2.1,27.6,,
"[2H][C@](C)(Nc1nc(C)nc2c(N3CCOCC3)c(=O)n(C3(CF)CC3)cc12)c1cccc(C(F)F)c1F [Example 55, (R)-4-((1-(3-(difluoromethyl)-2-fluorophenyl)ethyl-1-d)amino)-6-(1-(fluoromethyl)cyclopropyl)-2-methyl-8-morpholinylpyrido[4,3-d]pyrimidine-7(6H)-one]",,5.09,24.3,4.77,79
